According to patent US9682141B2, “Combination of kinase inhibitors and uses thereof” (INTELLIKINE LLC, priority 2011, dated 2017):

What was measured:
Type in all cases: biochemical
PI3K α = PI3K α (Homo sapiens (Human), UniProt P42336); assay: PI 3-Kinase (human) HTRF assay, p110α/p85α
PI3K γ = PI3K γ (Homo sapiens (Human), UniProt P48736); assay: PI 3-Kinase (human) HTRF assay, p110γ; conditions: read-out: PI3K γ IC50
PI3K δ = PI3K δ (Homo sapiens (Human), UniProt O00329); assay: PI 3-Kinase (human) HTRF assay, p110δ/p85α
Chain of PI3K δ (O00329 whole entry): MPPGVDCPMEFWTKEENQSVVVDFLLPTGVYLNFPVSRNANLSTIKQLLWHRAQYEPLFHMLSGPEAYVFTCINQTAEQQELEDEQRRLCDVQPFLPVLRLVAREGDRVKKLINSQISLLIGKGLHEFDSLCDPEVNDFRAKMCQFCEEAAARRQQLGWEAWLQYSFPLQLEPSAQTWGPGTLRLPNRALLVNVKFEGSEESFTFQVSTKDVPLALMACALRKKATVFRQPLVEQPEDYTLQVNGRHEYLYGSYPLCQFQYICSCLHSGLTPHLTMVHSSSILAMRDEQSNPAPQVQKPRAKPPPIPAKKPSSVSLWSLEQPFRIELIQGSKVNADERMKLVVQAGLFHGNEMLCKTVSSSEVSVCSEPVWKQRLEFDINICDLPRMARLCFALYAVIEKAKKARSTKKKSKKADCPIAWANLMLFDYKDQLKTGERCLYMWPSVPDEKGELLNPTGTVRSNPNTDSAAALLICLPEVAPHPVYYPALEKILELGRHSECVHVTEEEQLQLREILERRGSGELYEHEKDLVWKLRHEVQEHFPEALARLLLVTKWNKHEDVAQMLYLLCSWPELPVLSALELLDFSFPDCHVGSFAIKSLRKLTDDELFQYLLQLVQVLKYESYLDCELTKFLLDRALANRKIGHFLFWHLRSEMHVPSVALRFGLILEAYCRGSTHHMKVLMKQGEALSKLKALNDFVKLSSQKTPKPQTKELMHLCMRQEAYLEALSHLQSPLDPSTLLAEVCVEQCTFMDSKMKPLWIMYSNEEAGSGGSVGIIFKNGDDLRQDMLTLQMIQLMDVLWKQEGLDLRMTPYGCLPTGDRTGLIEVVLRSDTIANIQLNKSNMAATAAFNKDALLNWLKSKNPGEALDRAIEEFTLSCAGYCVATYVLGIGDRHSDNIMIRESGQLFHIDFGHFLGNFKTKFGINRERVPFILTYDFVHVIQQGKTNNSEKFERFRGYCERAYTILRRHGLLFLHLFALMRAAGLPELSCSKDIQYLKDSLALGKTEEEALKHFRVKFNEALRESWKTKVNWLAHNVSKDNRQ
Chain of PI3K δ (P27986 whole entry partner): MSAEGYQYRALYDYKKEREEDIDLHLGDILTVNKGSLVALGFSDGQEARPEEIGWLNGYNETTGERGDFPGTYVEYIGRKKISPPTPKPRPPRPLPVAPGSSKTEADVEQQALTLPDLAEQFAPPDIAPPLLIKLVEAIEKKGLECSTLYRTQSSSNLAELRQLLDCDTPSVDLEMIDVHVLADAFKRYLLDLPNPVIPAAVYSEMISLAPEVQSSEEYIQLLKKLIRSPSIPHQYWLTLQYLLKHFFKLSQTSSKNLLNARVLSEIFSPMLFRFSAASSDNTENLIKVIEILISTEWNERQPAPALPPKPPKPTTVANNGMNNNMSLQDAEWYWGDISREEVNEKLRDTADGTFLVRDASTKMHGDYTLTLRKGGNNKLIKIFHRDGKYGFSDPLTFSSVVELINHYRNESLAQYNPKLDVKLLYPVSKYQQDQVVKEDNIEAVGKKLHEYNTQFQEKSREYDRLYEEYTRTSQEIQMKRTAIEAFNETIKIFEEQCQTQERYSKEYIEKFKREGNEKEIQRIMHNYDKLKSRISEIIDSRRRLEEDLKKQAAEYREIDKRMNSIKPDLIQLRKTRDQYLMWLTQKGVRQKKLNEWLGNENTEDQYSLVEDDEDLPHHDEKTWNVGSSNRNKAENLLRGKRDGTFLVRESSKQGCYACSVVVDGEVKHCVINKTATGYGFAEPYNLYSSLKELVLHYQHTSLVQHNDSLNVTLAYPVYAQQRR

PI3K β = PI3K β (Homo sapiens (Human), UniProt P42338); assay: PI 3-Kinase (human) HTRF assay, p110β/p85α
Chain of PI3K β (P42338 whole entry): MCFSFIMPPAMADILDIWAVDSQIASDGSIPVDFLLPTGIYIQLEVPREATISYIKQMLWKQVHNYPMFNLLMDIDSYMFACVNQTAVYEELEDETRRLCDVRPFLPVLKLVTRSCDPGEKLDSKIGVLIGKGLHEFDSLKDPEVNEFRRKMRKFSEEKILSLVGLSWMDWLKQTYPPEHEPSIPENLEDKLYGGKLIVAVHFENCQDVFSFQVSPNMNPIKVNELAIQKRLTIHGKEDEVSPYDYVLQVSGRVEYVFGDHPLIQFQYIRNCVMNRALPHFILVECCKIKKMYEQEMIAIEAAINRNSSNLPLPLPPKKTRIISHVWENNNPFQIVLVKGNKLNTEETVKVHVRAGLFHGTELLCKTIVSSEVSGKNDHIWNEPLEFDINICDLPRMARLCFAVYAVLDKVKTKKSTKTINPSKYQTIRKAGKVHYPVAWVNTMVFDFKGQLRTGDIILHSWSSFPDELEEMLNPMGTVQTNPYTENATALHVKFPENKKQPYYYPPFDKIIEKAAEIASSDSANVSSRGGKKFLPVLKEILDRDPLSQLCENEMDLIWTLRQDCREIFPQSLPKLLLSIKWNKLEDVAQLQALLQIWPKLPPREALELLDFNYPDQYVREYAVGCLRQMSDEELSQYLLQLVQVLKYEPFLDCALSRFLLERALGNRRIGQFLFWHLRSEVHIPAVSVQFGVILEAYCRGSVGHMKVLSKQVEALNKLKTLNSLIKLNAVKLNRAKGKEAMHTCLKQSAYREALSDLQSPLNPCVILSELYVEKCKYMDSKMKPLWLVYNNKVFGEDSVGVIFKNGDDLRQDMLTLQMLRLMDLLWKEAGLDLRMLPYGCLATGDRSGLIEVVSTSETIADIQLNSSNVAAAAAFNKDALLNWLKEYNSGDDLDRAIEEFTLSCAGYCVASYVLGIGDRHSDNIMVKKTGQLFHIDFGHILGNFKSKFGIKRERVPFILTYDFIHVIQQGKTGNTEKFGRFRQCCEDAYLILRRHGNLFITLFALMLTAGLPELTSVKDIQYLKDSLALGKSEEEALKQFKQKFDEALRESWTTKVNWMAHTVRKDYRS
Chain of PI3K β (P27986 whole entry partner): as the sequence (P27986 whole entry partner) above

Chain of PI3K γ (P48736 whole entry): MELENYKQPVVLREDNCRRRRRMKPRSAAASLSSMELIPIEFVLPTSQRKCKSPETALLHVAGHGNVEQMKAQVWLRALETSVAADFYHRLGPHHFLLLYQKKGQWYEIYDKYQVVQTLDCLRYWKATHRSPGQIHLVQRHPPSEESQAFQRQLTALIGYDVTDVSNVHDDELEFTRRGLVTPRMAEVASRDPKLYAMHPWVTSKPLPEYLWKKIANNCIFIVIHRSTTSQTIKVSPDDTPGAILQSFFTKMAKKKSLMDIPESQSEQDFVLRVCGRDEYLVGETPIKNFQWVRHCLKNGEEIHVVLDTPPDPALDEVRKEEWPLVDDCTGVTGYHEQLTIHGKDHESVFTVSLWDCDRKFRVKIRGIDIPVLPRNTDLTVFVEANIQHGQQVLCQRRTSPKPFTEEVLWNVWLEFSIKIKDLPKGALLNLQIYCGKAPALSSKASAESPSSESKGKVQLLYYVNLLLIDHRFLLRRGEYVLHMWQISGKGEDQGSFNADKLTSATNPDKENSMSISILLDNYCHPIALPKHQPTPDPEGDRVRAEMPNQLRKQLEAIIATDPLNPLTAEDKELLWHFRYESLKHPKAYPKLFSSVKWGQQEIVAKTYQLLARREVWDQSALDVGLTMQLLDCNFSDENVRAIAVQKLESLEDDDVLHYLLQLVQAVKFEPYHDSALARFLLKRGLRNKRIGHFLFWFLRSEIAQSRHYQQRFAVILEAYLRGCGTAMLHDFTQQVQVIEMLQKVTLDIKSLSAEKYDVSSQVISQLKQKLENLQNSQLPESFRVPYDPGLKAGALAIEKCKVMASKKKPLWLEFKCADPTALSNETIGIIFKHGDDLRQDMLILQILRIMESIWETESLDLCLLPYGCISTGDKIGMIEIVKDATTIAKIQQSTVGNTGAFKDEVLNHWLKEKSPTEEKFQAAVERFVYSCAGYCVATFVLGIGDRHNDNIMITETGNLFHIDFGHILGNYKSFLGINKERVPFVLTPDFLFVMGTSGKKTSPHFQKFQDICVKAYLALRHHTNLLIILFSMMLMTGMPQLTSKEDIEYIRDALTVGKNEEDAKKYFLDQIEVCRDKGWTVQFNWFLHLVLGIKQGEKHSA
Chain of PI3K α (P42336 whole entry): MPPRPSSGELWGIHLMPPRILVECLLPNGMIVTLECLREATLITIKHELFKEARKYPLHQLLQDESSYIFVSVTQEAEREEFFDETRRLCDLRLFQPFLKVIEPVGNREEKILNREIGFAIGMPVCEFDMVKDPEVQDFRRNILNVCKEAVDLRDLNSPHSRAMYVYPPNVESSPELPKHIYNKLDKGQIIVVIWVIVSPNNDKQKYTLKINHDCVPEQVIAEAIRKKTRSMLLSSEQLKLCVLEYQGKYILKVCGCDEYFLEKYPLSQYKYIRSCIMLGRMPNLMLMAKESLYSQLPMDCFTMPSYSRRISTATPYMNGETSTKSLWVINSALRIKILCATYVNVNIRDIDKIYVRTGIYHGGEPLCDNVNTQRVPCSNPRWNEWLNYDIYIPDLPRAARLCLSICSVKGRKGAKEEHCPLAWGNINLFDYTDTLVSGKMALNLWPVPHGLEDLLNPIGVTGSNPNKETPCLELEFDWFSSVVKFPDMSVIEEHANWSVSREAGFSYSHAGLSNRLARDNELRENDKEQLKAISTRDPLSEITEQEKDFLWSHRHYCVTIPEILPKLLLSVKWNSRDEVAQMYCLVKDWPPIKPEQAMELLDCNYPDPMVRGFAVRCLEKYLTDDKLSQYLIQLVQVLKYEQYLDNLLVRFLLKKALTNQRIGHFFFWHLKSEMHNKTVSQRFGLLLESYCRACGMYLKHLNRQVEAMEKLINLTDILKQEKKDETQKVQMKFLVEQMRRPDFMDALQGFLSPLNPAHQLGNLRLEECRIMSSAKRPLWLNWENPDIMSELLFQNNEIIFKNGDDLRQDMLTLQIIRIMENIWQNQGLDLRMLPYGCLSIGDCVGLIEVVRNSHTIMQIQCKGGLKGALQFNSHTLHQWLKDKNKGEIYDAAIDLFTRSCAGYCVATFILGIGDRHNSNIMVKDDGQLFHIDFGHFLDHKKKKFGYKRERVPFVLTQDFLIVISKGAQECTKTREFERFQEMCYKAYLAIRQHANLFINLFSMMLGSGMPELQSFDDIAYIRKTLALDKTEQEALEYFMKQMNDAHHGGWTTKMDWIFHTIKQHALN
Chain of PI3K α (P27986 whole entry partner): as the sequence (P27986 whole entry partner) above

| SMILES | IC50 (PI3K α) | IC50 (PI3K γ) | IC50 (PI3K δ) | IC50 (PI3K β) |
| --- | --- | --- | --- | --- |
| CCN1CCN(C(=O)c2cnc3ccc(-c4ccc5oc(N)nc5c4)cn23)CC1 | < 1 µM | < 10 µM | > 10 µM | > 10 µM |
| CC1CN(C(=O)c2cnc3ccc(-c4ccc5oc(N)nc5c4)cn23)CC(C)N1 (stereo not shown) | < 10 µM | > 10 µM | > 10 µM | > 10 µM |
| CN1CCN(C(=O)c2cnc3ccc(-c4ccc5sc(N)nc5c4)cn23)CC1 | < 1 µM | > 10 µM | > 10 µM | < 10 µM |
| CN1CCN(C(=O)c2cnc3ccc(-c4ccc5nc(N)oc5c4)cn23)CC1 | < 1 µM | > 10 µM | > 10 µM | < 10 µM |
| CN1CCN(C(=O)c2cnc3ccc(-c4ccc5nc(N)sc5c4)cn23)CC1 | < 10 µM | > 10 µM | > 10 µM | < 10 µM |
| CC(=O)NC1CCN(C(=O)c2cnc3ccc(-c4ccc5oc(N)nc5c4)cn23)CC1 | < 1 µM | < 10 µM | < 10 µM | < 10 µM |
| Nc1nc2cc(-c3ccc4ncc(-c5ccnc(N6CCOCC6)c5)nc4c3)ccc2o1 | < 1 µM | > 10 µM | > 10 µM | > 10 µM |
| CN1CCC(N(C)c2cnc3ccc(-c4ccc5oc(N)nc5c4)cc3n2)CC1 | < 0.1 µM | < 10 µM | < 1 µM | < 10 µM |
| CN1CCC(N(C)c2ncnc3ccc(-c4ccc5oc(N)nc5c4)cc23)CC1 | < 0.1 µM | < 0.1 µM | < 1 µM | < 0.1 µM |
| CN1CCN(C(=O)c2cnc3ccc(-c4ccc5oc(N)nc5c4)cc3n2)CC1 | < 10 µM | > 10 µM | > 10 µM | > 10 µM |
| Nc1nc2cc(-c3ccc4ncc(C(=O)N5CCOCC5)nc4c3)ccc2o1 | < 10 µM | > 10 µM | > 10 µM | > 10 µM |
| Nc1nc2cc(-c3ccc4ncc(C(=O)N5CCN(CC6CC6)CC5)n4c3)ccc2o1 | < 1 µM | < 10 µM | < 10 µM | < 10 µM |
| Nc1nc2cc(-c3ccc4ncc(C(=O)N5CCC(O)CC5)n4c3)ccc2o1 | < 1 µM | < 10 µM | > 10 µM | > 10 µM |
| Nc1nc2cc(-c3ccc4ncc(C(=O)N5CCC(N6CCOCC6)CC5)n4c3)ccc2o1 | < 1 µM | < 10 µM | < 10 µM | < 10 µM |
| CN1CCC(N(C)C(=O)c2cnc3ccc(-c4ccc5oc(N)nc5c4)cn23)CC1 | < 1 µM | > 10 µM | < 10 µM | < 10 µM |
| CN(CCN1CCOCC1)c1cnc2ccc(-c3ccc4oc(N)nc4c3)cc2n1 | < 1 µM | < 10 µM | > 10 µM | < 10 µM |
| Nc1nc2cc(-c3ccc4ncc(-c5ccc(N6CCOCC6)nc5)nc4c3)ccc2o1 | < 10 µM | > 10 µM | > 10 µM | > 10 µM |
| Nc1nc2cc(-c3ccc4ncc(-c5ccccc5)nc4c3)ccc2o1 | < 1 µM | > 10 µM | > 10 µM | > 10 µM |

| SMILES | IC50 (PI3K α) | IC50 (PI3K γ) | IC50 (PI3K δ) | IC50 (PI3K β) |
| --- | --- | --- | --- | --- |
| Cc1ncccc1-c1cnc2ccc(-c3ccc4oc(N)nc4c3)cc2n1 | < 1 µM | > 10 µM | > 10 µM | > 10 µM |
| Nc1nc2cc(-c3ccc4ncc(C(=O)NCCO)n4c3)ccc2o1 | < 0.1 µM | < 0.1 µM | < 1 µM | < 1 µM |
| Nc1nc2cc(-c3ccc4ncc(C(=O)Nc5cccnc5)n4c3)ccc2o1 | < 0.1 µM | < 0.1 µM | < 1 µM | > 10 µM |
| CC(C)(C)N1CCN(C(=O)c2cnc3ccc(-c4ccc5oc(N)nc5c4)cn23)CC1 | < 0.1 µM | < 10 µM | < 10 µM | < 10 µM |
| NCC(=O)N1CCN(c2cnc3ccc(-c4ccc5oc(N)nc5c4)cc3n2)CC1 | < 0.1 µM | < 1 µM | < 1 µM | < 1 µM |
| COC(=O)N1CCN(c2cnc3ccc(-c4ccc5oc(N)nc5c4)cc3n2)CC1 | < 0.1 µM | < 0.1 µM | < 10 µM | < 1 µM |
| Cc1ccc(-c2cnc3ccc(-c4ccc5oc(N)nc5c4)cc3n2)cn1 | < 0.1 µM | < 0.1 µM | > 10 µM | > 10 µM |
| Nc1nc2cc(-c3ccc4ncc(-c5ccccn5)nc4c3)ccc2o1 | < 1 µM | < 0.1 µM | > 10 µM | < 10 µM |
| Nc1nc2cc(-c3ccc4ncc(N5CCOCC5)nc4n3)ccc2o1 | < 0.1 µM | < 0.1 µM | > 10 µM | < 1 µM |
| Nc1nc2cc(-c3ccc4ncc(-c5cccnc5)nc4n3)ccc2o1 | < 1 µM | < 1 µM | > 10 µM | < 10 µM |
| CN1CCN(c2cnc3ccc(-c4ccc5oc(N)nc5c4)nc3n2)CC1 | < 1 µM | < 10 µM | < 10 µM | < 1 µM |
| C[C@@H]1COCCN1C1CN(c2cnc3ccc(-c4ccc5oc(N)nc5c4)nc3n2)C1 | < 10 µM | < 10 µM | > 10 µM | > 10 µM |
| Nc1nc2cc(-c3ccc4ncc(N5CC(N6C7CCC6COC7)C5)nc4n3)ccc2o1 | < 10 µM | > 10 µM | > 10 µM | > 10 µM |
| Nc1nc2cc(-c3ccc4ncc(N5CC6CCC(C5)O6)cc4n3)ccc2o1 | < 0.1 µM | < 0.1 µM | > 10 µM | > 10 µM |
| Nc1nc2cc(-c3ccc4ncc(N5CCC(O)CC5)cc4n3)ccc2o1 | < 0.1 µM | < 1 µM | < 10 µM | < 10 µM |
| Nc1nc2cc(-c3ccc4ncc(N5CC(N6C7CCC6COC7)C5)cc4n3)ccc2o1 | < 0.1 µM | < 1 µM | < 10 µM | > 10 µM |
| Nc1nc2cc(-c3ccc4ncc(N5CC(N6CCN(C7CC7)CC6)C5)nc4n3)ccc2o1 | < 0.1 µM | < 10 µM | < 10 µM | < 10 µM |
| Nc1nc2cc(-c3ccc4ncc(N5CC(N6CCN(C7CC7)CC6)C5)cc4n3)ccc2o1 | < 0.1 µM | < 1 µM | < 10 µM | < 10 µM |

Other lines, results leading:

| IC50 (PI3K α) | IC50 (PI3K γ) | IC50 (PI3K δ) | IC50 (PI3K β) | SMILES |
| --- | --- | --- | --- | --- |
| < 0.1 µM | < 10 µM | > 10 µM | > 10 µM | Nc1nc2cc(-c3ccc4ncc(C(=O)N5CCN(CCO)CC5)n4c3)ccc2o1 |
| < 0.1 µM | < 1 µM | < 10 µM | < 0.1 µM | CC1CN(c2cnc3ccc(-c4ccc5oc(N)nc5c4)cc3n2)CCN1 (stereo not shown) |
| < 0.1 µM | < 1 µM | < 10 µM | < 0.1 µM | CCN1CCN(c2cnc3ccc(-c4ccc5oc(N)nc5c4)cc3n2)CC1 |
| < 0.1 µM | < 1 µM | < 1 µM | < 0.1 µM | Nc1nc2cc(-c3ccc4ncc(N5CCN(CC6CC6)CC5)nc4c3)ccc2o1 |
| < 0.1 µM | < 0.1 µM | < 10 µM | < 1 µM | CNC(=O)N1CCN(c2cnc3ccc(-c4ccc5oc(N)nc5c4)cc3n2)CC1 |
| < 0.1 µM | < 1 µM | < 0.1 µM | < 1 µM | CN1CCC(NC(=O)c2cnc3ccc(-c4ccc5oc(N)nc5c4)cn23)CC1 |
| < 0.1 µM | > 10 µM | > 10 µM | < 10 µM | CC(C)N1CCN(C(=O)c2cnc3ccc(-c4ccc5oc(N)nc5c4)cn23)CC1 |
| < 0.1 µM | > 10 µM | < 10 µM | < 1 µM | Nc1nc2cc(-c3ccc4ncc(N5CCC(N)CC5)nc4c3)ccc2o1 |
| < 0.1 µM | < 1 µM | < 0.1 µM | < 0.1 µM | CN(C)C1CCN(c2cnc3ccc(-c4ccc5oc(N)nc5c4)cc3n2)CC1 |
| < 0.1 µM | < 0.1 µM | < 10 µM | < 1 µM | CC1CN(c2cnc3ccc(-c4ccc5oc(N)nc5c4)cc3n2)CCO1 (stereo not shown) |
| < 0.1 µM | < 0.1 µM | < 10 µM | < 1 µM | Cc1nccn1-c1cnc2ccc(-c3ccc4oc(N)nc4c3)cc2n1 |
| < 0.1 µM | < 10 µM | > 10 µM | > 10 µM | Nc1nc2cc(-c3ccc4ncc(N5CCCCC5)nc4c3)ccc2o1 |
| < 0.1 µM | < 0.1 µM | < 1 µM | < 1 µM | Nc1nc2cc(-c3ccc4ncc(N5CCCC5)nc4c3)ccc2o1 |
| < 0.1 µM | < 1 µM | > 10 µM | > 10 µM | Cc1cn(-c2cnc3ccc(-c4ccc5oc(N)nc5c4)cc3n2)cn1 |
| < 0.1 µM | < 1 µM | < 1 µM | < 0.1 µM | C[C@H]1CN(c2cnc3ccc(-c4ccc5oc(N)nc5c4)cc3n2)CCN1 |
| < 0.1 µM | < 10 µM | < 10 µM | < 1 µM | C[C@@H]1CN(c2cnc3ccc(-c4ccc5oc(N)nc5c4)cc3n2)CCN1 |
| < 0.1 µM | < 0.1 µM | < 1 µM | < 10 µM | CS(=O)(=O)CCN1CCC(Nc2cnc3ccc(-c4ccc5oc(N)nc5c4)cc3n2)CC1 |
| < 0.1 µM | < 1 µM | < 1 µM | < 1 µM | CC(C)(C)N1CCN(c2cnc3ccc(-c4ccc5oc(N)nc5c4)cc3n2)CC1 |
| < 0.1 µM | < 0.1 µM | < 10 µM | < 10 µM | CCn1cnc2ccc(-c3ccc4oc(N)nc4c3)cc2c1=O |
| < 0.1 µM | < 1 µM | > 10 µM | < 10 µM | Nc1nc2cc(-c3ccc4ncn(CCO)c(=O)c4c3)ccc2o1 |
| < 0.1 µM | < 0.1 µM | < 1 µM | < 10 µM | Nc1nc2cc(-c3ccc4ncc(C(=O)N5CCCC5)n4c3)ccc2o1 |
| < 0.1 µM | < 0.1 µM | < 1 µM | < 1 µM | CCNC(=O)c1cnc2ccc(-c3ccc4oc(N)nc4c3)cn12 |
